Results from PMC3850926, “Evaluation of the adverse event profile and pharmacodynamics of toceranib phosphate administered to dogs with solid tumors at doses below the maximum tolerated dose” (BMC Veterinary Research, 2013).
“Also recorded” adds a separate entry of the source. Read-outs that look alike come from different tables or passages of the source.

Legend:
[1] = test system: dogs with a variety of tumors; design: method as in PMID 12855656; settings: cited from earlier work
VEGF = test: Plasma VEGF concentrations (Canine VEGF Quantikine ELISA); assay type: in vivo, dog
Protocol: (§1) A total of 40 dogs were enrolled in this study, with dogs initially assigned to toceranib at 2.5 mg/kg or 2.75 mg/kg EOD. All dogs were placed on famotidine at 0.5-1 mg/kg once per day at study initiation and owners were instructed to administer the toceranib in the morning with food. Physical examination, routine bloodwork (CBC, biochemistry profile) and blood sampling for assessment of toceranib and VEGF plasma concentrations was performed pretreatment and on days 0, 7, 14 and 30 of treatment. […] Owners of dogs that experienced CR, PR, or SD at study day 30 were offered the option of continuing toceranib administration for an additional 6 months (provided at no cost), although patient data was not officially captured beyond day 30.
Blood was collected into EDTA tubes and centrifuged at 3000 × g for 10 minutes. Plasma was then collected and split evenly into two portions in cryovials, then stored at -80°C until analysis was performed for toceranib and VEGF concentrations.
A solid phase sandwich ELISA was used to measure plasma concentrations of VEGF. […] All standards and samples were performed in duplicate and the absorbance reading at […] was subtracted from the absorbance reading at […].
VEGF concentrations were analyzed in terms of percent change from baseline. […]

KIT = settings: dogs with MCT, 8 hours post drug administration; cited from earlier work
solid tumors = test: Tumor response assessment (RECIST v.1.1); assay type: in vivo, dog
Protocol: as §1
Tumor assessments were performed on days 0, 7, 14 and 30 of study. Tumor assessment was performed using caliper measurement with digital photography documentation, thoracic radiography, ultrasonography, or spiral computerized tomography (CT) as indicated. Determination of antitumor efficacy was based on objective tumor assessments made according to the RECIST v.1.1 guidelines using unidimensional measurements. Response to therapy was defined as complete response (CR, resolution of all target and non-target lesions, no new lesions), partial response (PR, at least 30% decrease in the longest diameter of target lesions, no progression of non-target lesions, and no new lesions), stable disease (SD, decrease in target lesions of less than 30% or increase of target lesions less than 20%, no progression of non-target lesions, and no new lesions) or progressive disease (PD, greater than 20% increase in target lesions, progression of non-target, new lesions). Dogs were defined as experiencing clinical benefit if they had CR, PR, or SD.

[2] = cited from earlier work

Cc1[nH]c(/C=C2\C(=O)Nc3ccc(F)cc32)c(C)c1C(=O)NCCN1CCCC1 [toceranib, Toceranib phosphate]
complete responses, CR (number of dogs) ([1]; 2.5 mg/kg EOD, 16 dogs): 4 | objective response (number of dogs) ([1]; 2.5 mg/kg EOD, 16 dogs): 6 dogs | objective response (percent) ([1]; 2.5 mg/kg EOD, 16 dogs): 37.5% | partial responses, PR (number of dogs) ([1]; 2.5 mg/kg EOD, 16 dogs): 2 | stable disease, SD (number of dogs) ([1]; 2.5 mg/kg EOD, 16 dogs): 5 dogs | CR (number of dogs) ([1]; 3.25 mg/kg EOD, 20 dogs): 2 | PR (number of dogs) ([1]; 3.25 mg/kg EOD, 20 dogs): 6 | objective response (number of dogs) ([1]; 3.25 mg/kg EOD, 20 dogs): 8 | change in plasma VEGF concentrations over the 30 day treatment period (VEGF; 8 hours post dosing, days 0, 7, 14, 30, p < 0.001): increase significantly; also recorded: increased over time | association of change in VEGF with Cmax and Tmax (VEGF; linear mixed models): associated with Cmax (p < 0.001), but not Tmax (p = 0.74) | lowest plasma concentration with intratumoral target modulation (downregulation of KIT and/or ERK phosphorylation) (KIT): 30 ng/mL | average time dogs remained on toceranib after day 30 (solid tumors; 35 of the 40 dogs): 16.7 weeks | PD (number of dogs) (solid tumors; Nasal carcinoma, N 5): 2 | PR (number of dogs) (solid tumors; Salivary gland adenocarcinoma, N 1): 1 | PD (number of dogs) (solid tumors; Soft tissue sarcoma, N 7): 2 | PR (number of dogs) (solid tumors; Squamous cell carcinoma, N 4): 2 | PR (number of dogs) (solid tumors; Thyroid carcinoma, N 7): 2 | clinical benefit (number of dogs) (solid tumors; over 30 days): 36/40 | PD (number of dogs), all tumor types (solid tumors; over 30 days, 40 dogs): 4 dogs | PD (percent of dogs) (solid tumors; over 30 days, 40 dogs): 10% | PR (number of dogs), all tumor types (solid tumors; over 30 days, 40 dogs): 5/40 | PR (percent of dogs) (solid tumors; over 30 days, 40 dogs): 12.5% | overall clinical benefit rate (CR + PR + SD) (solid tumors; over 30 days, 40 dogs): 90% | dogs that transitioned from SD to PR after day 30 (solid tumors; thyroid carcinoma): one | dogs that transitioned to CR after day 30 (solid tumors; two SCC and one salivary gland adenocarcinoma): 3 dogs | dose proportionality of Cmax ([2]; healthy beagle dogs): proportional to doses ranging from 2.0 to 6.0 mg/kg | time of maximum drug concentration (Tmax) ([2]; previous studies): 5.3 to 9.3 h | time of Cmax post drug administration ([2]; prior studies): 6 to 8 h
